According to patent US8859569B2, “Substituted annellated pyrimidines and use thereof” (Bayer Pharma Aktiengesellschaft, priority 2011, dated 2014):

What was measured:
aorta rings = experiment: Vessel-relaxing action in vitro (aorta rings, phenylephrine contraction); details: Oryctolagus cuniculus, concentration required to reduce phenylephrine-induced contraction of rabbit aorta rings by 50%
Method: B-1. Vessel-relaxing Action in vitro
Rabbits are stunned with a blow on the back of the neck and exsanguinated. The aorta is removed, freed from adhering tissue, separated into rings with a width of 1.5 mm, and placed individually, with preloading, in 5-ml organ baths with carbogen-gassed Krebs-Henseleit solution at 37° C. with the following composition (mM in each case): sodium chloride: 119; potassium chloride: 4.8; calcium chloride dihydrate: 1; magnesium sulphate heptahydrate: 1.4; potassium dihydrogen phosphate: 1.2; sodium hydrogen carbonate: 25; glucose: 10. The contraction force is recorded with Statham UC2 cells, amplified and digitized via an A/D converter (DAS-1802 HC, Keithley Instruments Munich) and recorded in parallel on a continuous-line recorder. To produce contraction, phenylephrine is added to the bath cumulatively in increasing concentration. After several control cycles, the test substance is added in increasing dosage in each subsequent pass and the level of contraction is compared with the level of contraction reached in the immediately preceding pass. This is used for calculating the concentration that is required to reduce the level of the control value by 50% (IC50 value). The standard application volume is 5 μl, and the proportion of DMSO in the bath solution corresponds to 0.1%.

[1] = target: T1, recombinant guanylate cyclase reporter cell line (Rattus norvegicus, UniProt P19686+P20595); experiment: Action on recombinant guanylate cyclase reporter cell line; type: cell-based
T1 construct: expressed in transfected cells
T1 sequence (P20595 1-619): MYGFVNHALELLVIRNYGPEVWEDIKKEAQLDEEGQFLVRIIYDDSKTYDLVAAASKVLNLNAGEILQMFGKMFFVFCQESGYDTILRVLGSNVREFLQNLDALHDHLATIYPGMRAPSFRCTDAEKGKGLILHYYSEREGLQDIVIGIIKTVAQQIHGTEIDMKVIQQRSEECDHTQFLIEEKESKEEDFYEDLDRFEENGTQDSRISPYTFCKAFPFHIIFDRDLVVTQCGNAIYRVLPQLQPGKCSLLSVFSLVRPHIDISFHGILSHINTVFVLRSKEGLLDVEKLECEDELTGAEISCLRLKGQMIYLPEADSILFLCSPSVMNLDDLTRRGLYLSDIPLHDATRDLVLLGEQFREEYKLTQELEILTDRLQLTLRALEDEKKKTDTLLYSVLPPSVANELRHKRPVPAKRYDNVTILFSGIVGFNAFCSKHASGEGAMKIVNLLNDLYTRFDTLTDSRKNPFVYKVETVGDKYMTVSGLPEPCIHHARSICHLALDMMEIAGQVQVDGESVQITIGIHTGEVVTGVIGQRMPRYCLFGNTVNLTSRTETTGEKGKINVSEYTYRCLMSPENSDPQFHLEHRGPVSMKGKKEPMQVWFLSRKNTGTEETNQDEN
T1 sequence (P19686 1-690): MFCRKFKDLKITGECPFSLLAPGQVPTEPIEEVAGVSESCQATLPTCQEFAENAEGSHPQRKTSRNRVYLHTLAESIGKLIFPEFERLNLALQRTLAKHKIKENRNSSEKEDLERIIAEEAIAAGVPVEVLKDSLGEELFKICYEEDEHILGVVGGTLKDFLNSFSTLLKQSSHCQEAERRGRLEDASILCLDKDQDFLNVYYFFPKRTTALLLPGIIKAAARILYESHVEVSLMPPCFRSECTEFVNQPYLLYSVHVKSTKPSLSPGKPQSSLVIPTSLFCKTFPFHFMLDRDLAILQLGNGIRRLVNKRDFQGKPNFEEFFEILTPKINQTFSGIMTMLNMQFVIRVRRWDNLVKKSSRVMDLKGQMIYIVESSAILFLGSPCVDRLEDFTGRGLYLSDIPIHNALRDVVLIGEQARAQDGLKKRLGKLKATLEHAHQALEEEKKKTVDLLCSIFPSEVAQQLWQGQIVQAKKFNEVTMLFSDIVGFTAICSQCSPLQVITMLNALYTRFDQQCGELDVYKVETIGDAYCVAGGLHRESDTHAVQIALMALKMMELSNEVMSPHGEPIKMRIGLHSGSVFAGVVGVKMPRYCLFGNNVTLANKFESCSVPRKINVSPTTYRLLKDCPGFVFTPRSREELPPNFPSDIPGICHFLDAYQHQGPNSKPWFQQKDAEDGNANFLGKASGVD
Method: B-2. Action on Recombinant Guanylate Cyclase Reporter Cell Line
The cellular action of the compounds according to the invention is determined on a recombinant guanylate cyclase reporter cell line, as described in F. Wunder et al., Anal. Biochem. 339, 104-112 (2005).

[2] = target: T2, human phosphodiesterase 5 (PDE-5) (Homo sapiens, UniProt O76074); experiment: Inhibition of human phosphodiesterase 5 (PDE-5), SPA assay; type: biochemical; details: PDE-5 preparation from human platelets, [8-3H]cGMP substrate
T2 construct: PDE-5 preparations are obtained from human platelets by lysis; from tissue; host or cells: human platelets
How it was run: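 PDE-5 partially purified from human platelets by Mono Q chromatography, diluted so under 70% of [8-3H]cGMP (0.025 μCi) converted. Compounds at 4 μM to 0.0018 μM final, Tris-HCl pH 7.5 with MgCl2, 60 min at room temperature. Yttrium SPA beads stop reaction; IC50 from concentration–inhibition plots.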

SMILES | IC50 (aorta rings) [nM] | MEC (minimal effective concentration) [1] [μm] | IC50 [2] [nM]
CC1(C)C(=O)Nc2nc(-c3nn(Cc4ccccc4F)c4ncccc34)nc(-n3cc(C(F)(F)F)cn3)c21 [Example 29, 2-[1-(2-Fluorobenzyl)-1H-pyrazolo[3,4-b]pyridin-3-yl]-5,5-dimethyl-4-[4-(trifluoromethyl)-1H-pyrazol-1-yl]-5,7-dihydro-6H-pyrrolo[2,3-d]pyrimidin-6-one] | 11400 | 1.0 | > 4000
CC1(C)C(=O)Nc2nc(-c3nn(Cc4ccccc4F)c4ncccc34)nc(-n3ccc(C(F)(F)F)n3)c21 [Example 30, 2-[1-(2-Fluorobenzyl)-1H-pyrazolo[3,4-b]pyridin-3-yl]-5,5-dimethyl-4-[3-(trifluoromethyl)-1H-pyrazol-1-yl]-5,7-dihydro-6H-pyrrolo[2,3-d]pyrimidin-6-one] | > 10000 | 1.0 | > 4000
CC1(C)C(=O)Nc2nc(-c3nn(Cc4ccccc4F)c4ncccc34)nc(N3CCOC(C(F)(F)F)C3)c21 (stereo not drawn) [Example 32, 2-[1-(2-Fluorobenzyl)-1H-pyrazolo[3,4-b]pyridin-3-yl]-5,5-dimethyl-4-[2-(trifluoromethyl)morpholin-4-yl]-5,7-dihydro-6H-pyrrolo[2,3-d]pyrimidin-6-one] | 9160 | 1.0 | 720
CC1(C)C(=O)Nc2nc(-n3nc(Cc4ccccc4F)c4cc(F)ccc43)nc(OCCC(F)(F)F)c21 [Example 34, 2-[5-Fluoro-3-(2-fluorobenzyl)-1H-indazol-1-yl]-5,5-dimethyl-4-(3,3,3-trifluoropropoxy)-5,7-dihydro-6H-pyrrolo[2,3-d]pyrimidin-6-one] | 6150 | 1.0 | 550
CC1(C)C(=O)Nc2nc(-n3nc(Cc4ccccc4F)c4ccccc43)nc(NCCC(F)(F)F)c21 [Example 35, 2-[3-(2-Fluorobenzyl)-1H-indazol-1-yl]-5,5-dimethyl-4-[(3,3,3-trifluoropropyl)amino]-5,7-dihydro-6H-pyrrolo[2,3-d]pyrimidin-6-one] | > 10000 | 0.3 | 110
CC1(C)C(=O)Nc2nc(-n3nc(Cc4ccccc4F)c4ccccc43)nc(NCC3CC3)c21 [Example 36] | 5490 | 0.3 | 89
CC1(C)C(=O)Nc2nc(-n3nc(Cc4ccccc4F)c4cc(F)ccc43)nc(NCCC(F)(F)F)c21 [Example 37] | 3870 | 0.3 | 100
CC1(C)C(=O)Nc2nc(-n3nc(Cc4ccccc4F)c4cc(F)ccc43)nc(NCC3CC3)c21 [Example 38] | 10000 | 0.3 | 41
C[C@@H](Nc1nc(-c2nn(Cc3ccccc3F)c3ncc(F)cc23)nc2c1C(C)(C)C(=O)N2)C1CC1 [Example 88, 4-{[(1R)-1-Cyclopropylethyl]amino}-2-[5-fluoro-1-(2-fluorobenzyl)-1H-pyrazolo[3,4-b]pyridin-3-yl]-5,5-dimethyl-5,7-dihydro-6H-pyrrolo[2,3-d]pyrimidin-6-one] | 1670 | 0.1 | 150
C[C@H](Nc1nc(-c2nn(Cc3ccccc3F)c3ncc(F)cc23)nc2c1C(C)(C)C(=O)N2)C1CC1 [Example 89, 4-{[(1S)-1-Cyclopropylethyl]amino}-2-[5-fluoro-1-(2-fluorobenzyl)-1H-pyrazolo[3,4-b]pyridin-3-yl]-5,5-dimethyl-5,7-dihydro-6H-pyrrolo[2,3-d]pyrimidin-6-one] | 3880 | 0.03 | 82
Cc1nc2c(cc1F)c(-c1nc(NCCC(F)(F)F)c3c(n1)NC(=O)C3(C)C)nn2Cc1ccccc1F [Example 90, 2-[5-Fluoro-1-(2-fluorobenzyl)-6-methyl-1H-pyrazolo[3,4-b]pyridin-3-yl]-5,5-dimethyl-4-[(3,3,3-trifluoropropyl)amino]-5,7-dihydro-6H-pyrrolo[2,3-d]pyrimidin-6-one] | 3070 | 0.3 | 230

These reach a lower IC50 (aorta rings). Values come first.

IC50 (aorta rings) [nM] | MEC (minimal effective concentration) [1] [μm] | IC50 [2] [nM] | SMILES
674 | 0.03 | 12 | CC1(C)C(=O)Nc2nc(-c3nn(Cc4ccccc4F)c4ncccc34)nc(-n3cc(O)cn3)c21 [Example 26, 2-[1-(2-Fluorobenzyl)-1H-pyrazolo[3,4-b]pyridin-3-yl]-4-(4-hydroxy-1H-pyrazol-1-yl)-5,5-dimethyl-5,7-dihydro-6H-pyrrolo[2,3-d]pyrimidin-6-one]
1470 | 0.1 | 4 | CC1(C)C(=O)Nc2nc(-c3nn(Cc4ccccc4F)c4ncccc34)nc(Oc3cn[nH]c3)c21 [Example 27, 2-[1-(2-Fluorobenzyl)-1H-pyrazolo[3,4-b]pyridin-3-yl]-5,5-dimethyl-4-(1H-pyrazol-4-yloxy)-5,7-dihydro-6H-pyrrolo[2,3-d]pyrimidin-6-one]
98 | 0.3 | 110 | CC(O)c1ccn(-c2nc(-c3nn(Cc4ccccc4F)c4ncccc34)nc3c2C(C)(C)C(=O)N3)n1 (stereo not drawn) [Example 28, 2-[1-(2-Fluorobenzyl)-1H-pyrazolo[3,4-b]pyridin-3-yl]-4-[3-(1-hydroxyethyl)-1H-pyrazol-1-yl]-5,5-dimethyl-5,7-dihydro-6H-pyrrolo[2,3-d]pyrimidin-6-one]
142 | 0.01 | 500 | CC1(C)C(=O)Nc2nc(-n3nc(Cc4ccccc4F)c4cc(F)ccc43)nc(O)c21 [Example 31, 2-[5-Fluoro-3-(2-fluorobenzyl)-1H-indazol-1-yl]-4-hydroxy-5,5-dimethyl-5,7-dihydro-6H-pyrrolo[2,3-d]pyrimidin-6-one]
696 | 0.3 | 570 | CC1(C)C(=O)Nc2nc(-c3nn(Cc4ccccc4F)c4ncccc34)nc(N3CCC(C(F)(F)F)C3)c21 (stereo not drawn) [Example 33, 2-[1-(2-Fluorobenzyl)-1H-pyrazolo[3,4-b]pyridin-3-yl]-5,5-dimethyl-4-[3-(trifluoromethyl)pyrrolidin-1-yl]-5,7-dihydro-6H-pyrrolo[2,3-d]pyrimidin-6-one]
618 | 0.1 | 88 | CC1(C)C(=O)Nc2nc(-c3nc(Cc4ccccc4F)c4ncccn34)nc(NCCC(F)(F)F)c21 [Example 39, 2-[8-(2-Fluorobenzyl)imidazo[1,5-a]pyrimidin-6-yl]-5,5-dimethyl-4-[(3,3,3-trifluoropropyl)amino]-5,7-dihydro-6H-pyrrolo[2,3-d]pyrimidin-6-one]
